Measured values taken from ChEMBL document CHEMBL4680187, “Optimization of EphA2 antagonists based on a lithocholic acid core led to the identification of UniPR505, a new 3α-carbamoyloxy derivative with antiangiogenetic properties” (Eur J Med Chem, 2020).
pIC50: −log10 of the molar value.

Columns and labels:
PC-3 = assay: Cytotoxicity against human PC3 cells after 2 hrs by LDH assay; type: cell-based; settings: pc-3, 2 h
Ephrin type-B receptor 2 = molecular target: T1, Ephrin type-B receptor 2 (Mus musculus, UniProt P54763); assay: Displacement of biotinylated ephrin-B1-Fc from mouse EphB2 Fc preincubated for 1 hr followed by ephrin-B1-FC addition and measured after 4 hrs by ELISA
T1 sequence (P54763 whole entry): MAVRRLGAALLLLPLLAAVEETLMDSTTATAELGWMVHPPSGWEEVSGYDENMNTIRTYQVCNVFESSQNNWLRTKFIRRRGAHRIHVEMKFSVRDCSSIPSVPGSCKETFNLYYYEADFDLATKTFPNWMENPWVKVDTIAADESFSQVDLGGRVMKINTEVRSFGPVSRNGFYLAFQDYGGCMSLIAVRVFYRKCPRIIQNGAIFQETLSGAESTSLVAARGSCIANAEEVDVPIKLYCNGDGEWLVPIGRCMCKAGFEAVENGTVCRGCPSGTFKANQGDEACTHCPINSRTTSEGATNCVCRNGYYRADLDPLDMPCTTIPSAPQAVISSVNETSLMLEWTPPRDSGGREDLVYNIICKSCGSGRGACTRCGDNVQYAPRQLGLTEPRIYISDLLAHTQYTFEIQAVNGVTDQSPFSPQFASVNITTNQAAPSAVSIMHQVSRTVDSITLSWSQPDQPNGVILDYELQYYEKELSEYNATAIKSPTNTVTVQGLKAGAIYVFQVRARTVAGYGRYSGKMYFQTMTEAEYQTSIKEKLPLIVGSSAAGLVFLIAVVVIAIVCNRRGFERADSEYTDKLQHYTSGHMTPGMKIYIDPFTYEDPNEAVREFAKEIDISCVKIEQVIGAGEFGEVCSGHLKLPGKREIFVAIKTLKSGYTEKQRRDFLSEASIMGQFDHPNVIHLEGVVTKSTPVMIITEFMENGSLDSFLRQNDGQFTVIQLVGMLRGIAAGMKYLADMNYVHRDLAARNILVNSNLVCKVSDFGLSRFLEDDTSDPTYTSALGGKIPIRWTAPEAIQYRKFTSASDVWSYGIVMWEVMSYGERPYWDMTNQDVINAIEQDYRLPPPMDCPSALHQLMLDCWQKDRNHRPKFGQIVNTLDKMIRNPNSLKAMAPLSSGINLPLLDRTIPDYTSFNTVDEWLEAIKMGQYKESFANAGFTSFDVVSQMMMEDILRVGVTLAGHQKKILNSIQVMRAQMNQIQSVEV

Ephrin type-B receptor 4 = molecular target: T2, Ephrin type-B receptor 4 (Mus musculus, UniProt P54761); assay: Displacement of biotinylated ephrin-B1-Fc from mouse EphB4 Fc preincubated for 1 hr followed by ephrin-B1-FC addition and measured after 4 hrs by ELISA
T2 sequence (P54761 whole entry): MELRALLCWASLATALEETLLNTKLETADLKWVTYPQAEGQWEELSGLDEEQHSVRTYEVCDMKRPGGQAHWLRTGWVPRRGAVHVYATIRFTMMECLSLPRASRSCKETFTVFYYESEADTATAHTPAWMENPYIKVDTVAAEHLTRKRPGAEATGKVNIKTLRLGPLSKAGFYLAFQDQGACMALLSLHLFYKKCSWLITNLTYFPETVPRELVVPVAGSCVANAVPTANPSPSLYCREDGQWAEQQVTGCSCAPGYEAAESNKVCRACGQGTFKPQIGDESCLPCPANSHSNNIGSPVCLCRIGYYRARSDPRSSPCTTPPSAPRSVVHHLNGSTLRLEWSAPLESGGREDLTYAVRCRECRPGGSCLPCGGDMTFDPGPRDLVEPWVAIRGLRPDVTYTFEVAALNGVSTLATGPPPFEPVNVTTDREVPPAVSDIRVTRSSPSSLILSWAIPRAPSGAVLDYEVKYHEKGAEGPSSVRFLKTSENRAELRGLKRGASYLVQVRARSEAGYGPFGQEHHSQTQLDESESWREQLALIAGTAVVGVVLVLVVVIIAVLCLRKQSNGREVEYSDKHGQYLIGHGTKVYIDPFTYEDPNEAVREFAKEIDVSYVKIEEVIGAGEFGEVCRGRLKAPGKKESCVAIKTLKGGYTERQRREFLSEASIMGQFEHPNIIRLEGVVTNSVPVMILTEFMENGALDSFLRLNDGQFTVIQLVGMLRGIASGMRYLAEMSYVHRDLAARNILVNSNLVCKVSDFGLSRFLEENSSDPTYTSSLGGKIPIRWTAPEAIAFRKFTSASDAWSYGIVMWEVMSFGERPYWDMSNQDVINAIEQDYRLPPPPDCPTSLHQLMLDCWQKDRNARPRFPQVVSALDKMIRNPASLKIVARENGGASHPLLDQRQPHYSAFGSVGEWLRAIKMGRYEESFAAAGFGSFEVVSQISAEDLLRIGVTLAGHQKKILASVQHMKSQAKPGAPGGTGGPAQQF

HUVEC = assay: Antiangiogenic activity in HUVEC assessed as reduction in number of polygons formation after 16 hrs by matrigel-based microscopic analysis; settings: Homo sapiens

pIC50 (Ephrin type-B receptor 2): 4.85 | pIC50 (Ephrin type-B receptor 4): < 4.52
SMILES: CCNC(=O)O[C@@H]1CC[C@@]2(C)[C@H](CC[C@@H]3[C@@H]2CC[C@]2(C)[C@@H]([C@H](C)CCC(=O)N[C@H](CC(=O)O)Cc4c[nH]c5ccccc45)CC[C@@H]32)C1
Activity (PC-3): Non-Toxic | pIC50 (HUVEC): 5.52
